One compound from patent US20220251163A1 (Sinopep-Allsino Biopharmaceutical Co., Ltd., priority 2019, published 2022) can be followed below.

One assay addresses T1, mGLP-1R (Mus musculus, UniProt O35659).
T1 construct: expressed in transfected cells; host or cells: HEK293
T1 sequence (O35659 22-463): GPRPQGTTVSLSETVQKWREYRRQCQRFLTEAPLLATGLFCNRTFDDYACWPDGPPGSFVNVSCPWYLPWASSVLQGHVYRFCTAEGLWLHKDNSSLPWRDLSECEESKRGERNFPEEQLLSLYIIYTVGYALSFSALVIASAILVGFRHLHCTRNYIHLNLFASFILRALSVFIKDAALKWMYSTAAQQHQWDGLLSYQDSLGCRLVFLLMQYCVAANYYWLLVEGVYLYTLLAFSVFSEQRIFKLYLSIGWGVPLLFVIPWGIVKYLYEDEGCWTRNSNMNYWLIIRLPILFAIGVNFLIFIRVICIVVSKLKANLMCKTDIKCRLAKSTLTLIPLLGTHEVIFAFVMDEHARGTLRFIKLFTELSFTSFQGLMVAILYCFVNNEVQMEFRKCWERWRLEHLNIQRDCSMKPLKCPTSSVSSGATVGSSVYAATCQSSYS
Put plainly: GLP-1R agonist activity, cAMP in transfected HEK293 cells. The class given is cell-based. As to conditions: HEK293 cells transfected with GLP-1R, cAMP, 20 min incubation; read-out: mGLP-1R EC50.

The next assay has as its system ob/ob mice. Put plainly: Blood glucose reducing experiment, single subcutaneous injection in ob/ob mice.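 Note: random blood glucose read at each time point, decrease rate given as percentage fall versus the model control group.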 Conditions: 100 μg/kg single s.c. Format: in vivo.
The nature of assay [1]: Effect on random weight of ob/ob mice after single subcutaneous injection. Format: in vivo. Conditions: 100 μg/kg single s.c., X ± s, n = 7.
The target in another assay is T2, mGIPR (Mus musculus, UniProt Q0P543).
T2 construct: expressed in transfected cells; host or cells: HEK293
T2 sequence (Q0P543 19-460): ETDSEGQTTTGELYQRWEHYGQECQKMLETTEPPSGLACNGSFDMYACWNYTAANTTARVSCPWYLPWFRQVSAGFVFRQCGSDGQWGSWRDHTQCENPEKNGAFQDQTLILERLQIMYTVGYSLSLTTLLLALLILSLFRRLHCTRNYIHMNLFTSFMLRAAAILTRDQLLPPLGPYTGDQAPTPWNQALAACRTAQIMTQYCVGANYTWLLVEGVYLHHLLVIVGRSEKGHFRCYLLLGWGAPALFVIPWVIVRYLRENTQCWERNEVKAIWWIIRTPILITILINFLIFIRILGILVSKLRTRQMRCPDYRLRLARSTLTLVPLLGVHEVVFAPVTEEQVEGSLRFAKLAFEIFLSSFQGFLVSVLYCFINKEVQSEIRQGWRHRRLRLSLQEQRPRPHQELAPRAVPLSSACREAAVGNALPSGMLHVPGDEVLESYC
Description: GIPR agonist activity, cAMP in transfected HEK293 cells. As to conditions: HEK293 cells transfected with GIPR, cAMP, 20 min incubation; read-out: mGIPR EC50. Format: cell-based.

pEC50: −log10 of the molar value. *1 amine or outer side, *2 acyl side, *3 side chain or, on linkers, in order; H or OH if unused. Where a SMILES comes first, the peptide text is derived from it. Side-chain parts run from the residue outwards. [ ]: non-standard residue; d: D form. The star is where a group is joined. C18 diacid = O=C(O)CCCCCCCCCCCCCCCCC(=O)*; γGlu = O=C(O)[C@H](CCC(=O)[*:2])N[*:1]; AEEA = NCCOCCOCC(=O)O; Aib = CC(C)(N)C(=O)O

Description for mGIPR: HEK293 cells were co-transfected with cDNA encoding GLP-1R or GIPR. In a test for determining the compound, the cells were inoculated in a 96-well plate 2 h in advance, the polypeptide compound was dissolved with DMSO, and diluted to different multiples with a culture medium containing 0.1% bovine serum albumin and added to the co-transfected cells.
Description for mGLP-1R: HEK293 cells were co-transfected with cDNA encoding GLP-1R or GIPR. In a test for determining the compound, the cells were inoculated in a 96-well plate 2 h in advance, the polypeptide compound was dissolved with DMSO, and diluted to different multiples with a culture medium containing 0.1% bovine serum albumin and added to the co-transfected cells. After the cells were incubated for 20 min, fluorescence values were determined through microplate reader of an ELISA kit of the Cisbo Company, a standard curve was established to convert the fluorescence values into corresponding cAMP values, and the EC50 value of the compound was calculated through nonlinear regression of Graphpad Prism 5.0 software.

The pEC50 is −log10 of the EC50, conventionally taken in molar units. `CC[C@H](C)[C@H](NC(=O)[C@H](CC(C)C)NC(=O)[C@H](Cc1c[nH]c2ccccc12)NC(=O)[C@H](CCC(N)=O)NC(=O)[C@@H](NC(=O)[C@H](Cc1ccccc1)NC(=O)[C@H](C)NC(=O)[C@H](CCCCNC(=O)COCCOCCNC(=O)COCCOCCNC(=O)CC[C@H](NC(=O)CCCCCCCCCCCCCCCCC(=O)O)C(=O)O)NC(=O)[C@H](CCC(N)=O)NC(=O)[C@H](C)NC(=O)[C@@H](NC(=O)[C@H](CCCCN)NC(=O)[C@H](CC(=O)O)NC(=O)[C@H](CC(C)C)NC(=O)C(C)(C)NC(=O)[C@@H](NC(=O)[C@H](CO)NC(=O)[C@H](Cc1ccc(O)cc1)NC(=O)[C@H](CC(=O)O)NC(=O)[C@H](CO)NC(=O)[C@@H](NC(=O)[C@H](Cc1ccccc1)NC(=O)[C@@H](NC(=O)CNC(=O)[C@H](CCC(=O)O)NC(=O)[C@H](C)NC(=O)[C@@H](N)Cc1ccc(O)cc1)[C@@H](C)O)[C@@H](C)O)[C@@H](C)CC)[C@@H](C)CC)C(C)C)C(=O)N[C@@H](C)C(=O)NCC(=O)NCC(=O)N1CCC[C@H]1C(=O)N[C@@H](CO)C(=O)N[C@@H](CO)C(=O)NCC(=O)N[C@@H](C)C(=O)N1CCC[C@H]1C(=O)N1CCC[C@H]1C(=O)N1CCC[C@H]1C(=O)N[C@@H](CO)C(N)=O` [ID NO: 5] (H-YAEGTFTSDYSI[Aib]LDKIAQK([AEEA-AEEA-γGlu-C18 diacid])AFVQWLIAGGPSSGAPPPS-NH2): the pEC50 at mGLP-1R is 11.52. In addition, the “Blood glucose at different time after administration, 0 h” value in the assay on ob/ob mice (0 h (before administration), X ± s, n = 7) is given as 20.57 ± 0.84 mmol/L. For the same compound, the “Decrease rate of blood glucose at different time after administration, 2 h” value in the assay on ob/ob mice (2 h) was found to be 50.8%. Moreover, the “Blood glucose at different time after administration, 2 h” value in the assay on ob/ob mice (2 h, X ± s, n = 7) is listed as 10.12 ± 1.20 mmol/L. Besides, in the assay on ob/ob mice (4 h), the “Decrease rate of blood glucose at different time after administration, 4 h” value is on record as 53.6%. Further, in the assay on ob/ob mice (4 h, X ± s, n = 7), the “Blood glucose at different time after administration, 4 h” value came out at 9.54 ± 0.84 mmol/L. Further, the “Decrease rate of blood glucose at different time after administration, 6 h” value in the assay on ob/ob mice (6 h) was found to be 54.2%. Moreover, in the assay with ob/ob mice (6 h, X ± s, n = 7), the “Blood glucose at different time after administration, 6 h” value is on record as 9.43 ± 0.86 mmol/L. Moreover, the “Decrease rate of blood glucose at different time after administration, 10 h” value in the assay on ob/ob mice (10 h) came to 52.6%. In addition, in the assay on ob/ob mice (10 h, X ± s, n = 7), the “Blood glucose at different time after administration, 10 h” value was determined as 9.76 ± 0.96 mmol/L. Besides, in the assay on ob/ob mice (24 h), the “Decrease rate of blood glucose at different time after administration, 24 h” value was found to be 47.1%. Further, in the assay on ob/ob mice (24 h, X ± s, n = 7), the “Blood glucose at different time after administration, 24 h” value was 10.89 ± 1.43 mmol/L. For the same compound, the “Decrease rate of blood glucose at different time after administration, 34 h” value in the assay with ob/ob mice (34 h) was determined as 35.2%. The “Blood glucose at different time after administration, 34 h” value with ob/ob mice (34 h, X ± s, n = 7) came to 13.33 ± 2.10 mmol/L. Besides, the “Decrease rate of blood glucose at different time after administration, 48 h” value in the assay on ob/ob mice (48 h) came out at 15.8%. In addition, in the assay with ob/ob mice (blood glucose curve area within 24 h, X ± s, n = 7), the “AUC0-24 h Glu” value came out at 252.25 ± 19.68 mmol·h/L. In addition, in the assay with ob/ob mice (versus model control group), the “AUC0-24 h Glu Decrease rate” value is on record as 50.6%. Further, in assay [1] (0 h), the “Changes of random body weight at different time after administration, 0 h” value worked out at 0.0 ± 0.0 g and the “Random body weight at different time after administration, 0 h” value is recorded as 43.5 ± 0.9 g. Moreover, in assay [1] (24 h), the “Changes of random body weight at different time after administration, 24 h” value was -1.4 ± 0.2 g and the “Random body weight at different time after administration, 24 h” value is recorded as 42.0 ± 0.9 g. Further, in assay [1] (48 h), the “Changes of random body weight at different time after administration, 48 h” value is -0.6 ± 0.2 g and the “Random body weight at different time after administration, 48 h” value is 42.9 ± 0.9 g. Besides, at mGIPR, the pEC50 is 11.19.
